Legend:
[1] = tested on: PC12 (rat pheochromocytoma); format: cell-based
SK-N-BE2C = format: cell-based, human
CHO-K1 = format: cell-based, Chinese Hamster
L6 (rat myoblast cell) = format: cell-based

NC1=N[C@H](O)[C@H]2[C@H]3O[C@]4(O)O[C@@H]([C@@H](O)[C@@]2(N1)[C@@H]4O)[C@]3(O)CO [TTX, tetrodotoxin]
block of [14C] Guanidine influx [1]: Guanidine influx was completely
block of [14C] Guanidine influx (SK-N-BE2C): TTX partially blocked influx
block of [14C] Guanidine influx (CHO-K1): Guanidine influx was completely
block of [14C] Guanidine influx (L6 (rat myoblast cell)): partially blocked by TTX (Nav1.5
